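Protocol summary: plate cells (96-well), add compound at 5 concentrations, incubate 48 h, interpolate endpoints linearly. GI50 marks 50% less growth. TGI: total growth inhibition.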
What was measured:
Assay in all cases: inhibition of tumour cell growth, NCI panel, 48 h
T-47D breast = test system: T-47D breast
HS 578T breast = test system: HS 578T breast
NCI-H23 lung = test system: NCI-H23 lung
OVCAR-8 ovarian = test system: OVCAR-8 ovarian
EKVX NSCLC = test system: EKVX NSCLC
M14 melanoma = test system: M14 melanoma
SNB-75 CNS = test system: SNB-75 CNS
NCI-H460 lung = test system: NCI-H460 lung
UACC-257 melanoma = test system: UACC-257 melanoma
MDA-MB-231 breast = test system: MDA-MB-231 breast
HCC-2998 colon = test system: HCC-2998 colon
OVCAR-5 ovarian = test system: OVCAR-5 ovarian
HCT-116 colon = test system: HCT-116 colon
SF-539 CNS = test system: SF-539 CNS

O=C1Nc2cccc(Cl)c2/C1=C\c1c(Cl)nc2n1CCS2
TGI (T-47D breast): > 100 µM
TGI (HS 578T breast): > 100 µM
TGI (NCI-H23 lung): > 100 µM
TGI (OVCAR-8 ovarian): > 100 µM
TGI (EKVX NSCLC): > 100 µM
TGI (M14 melanoma): > 100 µM
TGI (SNB-75 CNS): > 100 µM
TGI (NCI-H460 lung): > 100 µM
TGI (UACC-257 melanoma): > 100 µM
TGI (MDA-MB-231 breast): > 100 µM
TGI (HCC-2998 colon): > 100 µM
TGI (OVCAR-5 ovarian): > 100 µM
TGI (HCT-116 colon): > 100 µM
TGI (SF-539 CNS): > 100 µM

COC[C@@H](N=CC(C)(C)C)C(C)C
TGI (T-47D breast): > 100 µM
TGI (HS 578T breast): > 100 µM
TGI (NCI-H23 lung): > 100 µM
TGI (OVCAR-8 ovarian): > 100 µM
TGI (EKVX NSCLC): > 100 µM
TGI (M14 melanoma): > 100 µM
TGI (SNB-75 CNS): > 100 µM
TGI (NCI-H460 lung): > 100 µM
TGI (UACC-257 melanoma): > 100 µM
TGI (MDA-MB-231 breast): > 100 µM
TGI (HCC-2998 colon): > 100 µM
TGI (OVCAR-5 ovarian): > 100 µM
TGI (HCT-116 colon): > 100 µM
TGI (SF-539 CNS): > 100 µM

Cc1ccc(-n2cnc(C(=N)C#N)c2N)cc1
TGI (T-47D breast): > 100 µM
TGI (HS 578T breast): > 100 µM
TGI (NCI-H23 lung): > 100 µM
TGI (OVCAR-8 ovarian): > 100 µM
TGI (EKVX NSCLC): > 100 µM
TGI (M14 melanoma): > 100 µM
TGI (SNB-75 CNS): > 100 µM
TGI (NCI-H460 lung): > 100 µM
TGI (UACC-257 melanoma): > 100 µM
TGI (MDA-MB-231 breast): > 100 µM
TGI (HCC-2998 colon): > 100 µM
TGI (OVCAR-5 ovarian): > 100 µM
TGI (HCT-116 colon): > 100 µM
TGI (SF-539 CNS): > 100 µM

COc1cc(Nc2nc3ccccc3nc2C(=O)O)cc(OC)c1OC
TGI (T-47D breast): > 100 µM
TGI (HS 578T breast): 92 µM
TGI (NCI-H23 lung): > 100 µM
TGI (OVCAR-8 ovarian): > 100 µM
TGI (EKVX NSCLC): > 100 µM
TGI (M14 melanoma): > 100 µM
TGI (SNB-75 CNS): > 100 µM
TGI (NCI-H460 lung): > 100 µM
TGI (UACC-257 melanoma): > 100 µM
TGI (MDA-MB-231 breast): > 100 µM
TGI (HCC-2998 colon): > 100 µM
TGI (OVCAR-5 ovarian): > 100 µM
TGI (HCT-116 colon): > 100 µM
TGI (SF-539 CNS): > 100 µM

CN1C(=O)c2ccccc2OC12C=Cc1c(ccc3ccccc13)O2 (stereo not drawn)
TGI (T-47D breast): > 25.7 µM
TGI (HS 578T breast): 33.1 µM
TGI (NCI-H23 lung): 16 µM
TGI (OVCAR-8 ovarian): 17.6 µM
TGI (EKVX NSCLC): 10.7 µM
TGI (M14 melanoma): 17.1 µM
TGI (SNB-75 CNS): 33.1 µM
TGI (NCI-H460 lung): 42.5 µM
TGI (UACC-257 melanoma): 36.3 µM
TGI (MDA-MB-231 breast): 44.6 µM
TGI (HCC-2998 colon): 16 µM
TGI (OVCAR-5 ovarian): 27.4 µM
TGI (HCT-116 colon): 14.2 µM
TGI (SF-539 CNS): 50.4 µM

CCOC1(OCC)C2C=CC1C(COS(=O)(=O)c1ccc(C)cc1)C2COS(=O)(=O)c1ccc(C)cc1 (stereo not drawn)
TGI (T-47D breast): 85.1 µM
TGI (HS 578T breast): > 100 µM
TGI (NCI-H23 lung): > 100 µM
TGI (OVCAR-8 ovarian): > 100 µM
TGI (EKVX NSCLC): > 100 µM
TGI (M14 melanoma): 96.5 µM
TGI (SNB-75 CNS): > 100 µM
TGI (NCI-H460 lung): > 100 µM
TGI (UACC-257 melanoma): 62.2 µM
TGI (MDA-MB-231 breast): 69.5 µM
TGI (HCC-2998 colon): > 100 µM
TGI (OVCAR-5 ovarian): > 100 µM
TGI (HCT-116 colon): 77.1 µM
TGI (SF-539 CNS): > 100 µM

N#CC1C(=S)NC(c2ccccc2)=CC12CCCCC2 (stereo not drawn)
TGI (T-47D breast): 31.1 µM
TGI (HS 578T breast): > 100 µM
TGI (NCI-H23 lung): 36.9 µM
TGI (OVCAR-8 ovarian): > 100 µM
TGI (EKVX NSCLC): 44.6 µM
TGI (M14 melanoma): 84.9 µM
TGI (SNB-75 CNS): > 100 µM
TGI (NCI-H460 lung): > 100 µM
TGI (UACC-257 melanoma): > 100 µM
TGI (MDA-MB-231 breast): > 100 µM
TGI (HCC-2998 colon): > 100 µM
TGI (OVCAR-5 ovarian): > 100 µM
TGI (HCT-116 colon): 62.1 µM
TGI (SF-539 CNS): > 100 µM

NS(=O)(=O)c1ccc(/C=C/c2ccc(O)c(O)c2)cc1
TGI (T-47D breast): 53.1 µM
GI50 (HS 578T breast): 25.6 µM
TGI (HS 578T breast): 92.8 µM
GI50 (NCI-H23 lung): 25.9 µM
TGI (NCI-H23 lung): 79.3 µM
GI50 (OVCAR-8 ovarian): 16.7 µM
TGI (OVCAR-8 ovarian): 56.5 µM
TGI (EKVX NSCLC): 64 µM
TGI (M14 melanoma): > 100 µM
TGI (SNB-75 CNS): 58.3 µM
TGI (NCI-H460 lung): > 100 µM
TGI (UACC-257 melanoma): > 100 µM
TGI (MDA-MB-231 breast): 64.6 µM
TGI (HCC-2998 colon): 41.7 µM
TGI (OVCAR-5 ovarian): > 100 µM
TGI (HCT-116 colon): > 100 µM
GI50 (SF-539 CNS): 14.2 µM
TGI (SF-539 CNS): 40.2 µM

CC(C)(C)OC(=O)N(CCCCN(CCCNC(=O)C(F)(F)F)C(=O)OC(C)(C)C)CCCNC(=O)C(F)(F)F
TGI (T-47D breast): > 100 µM
TGI (HS 578T breast): > 100 µM
TGI (NCI-H23 lung): > 100 µM
TGI (OVCAR-8 ovarian): > 100 µM
TGI (EKVX NSCLC): > 100 µM
TGI (M14 melanoma): > 100 µM
TGI (SNB-75 CNS): > 100 µM
TGI (NCI-H460 lung): > 100 µM
TGI (UACC-257 melanoma): > 100 µM
TGI (MDA-MB-231 breast): > 100 µM
TGI (HCC-2998 colon): > 100 µM
TGI (OVCAR-5 ovarian): > 100 µM
TGI (HCT-116 colon): > 100 µM
TGI (SF-539 CNS): > 100 µM

O=c1[nH]nnc2c1sc1ncccc12
TGI (T-47D breast): > 100 µM
TGI (HS 578T breast): > 100 µM
TGI (NCI-H23 lung): > 100 µM
TGI (OVCAR-8 ovarian): > 100 µM
TGI (EKVX NSCLC): > 100 µM
TGI (M14 melanoma): > 100 µM
TGI (SNB-75 CNS): > 100 µM
TGI (NCI-H460 lung): > 100 µM
TGI (UACC-257 melanoma): > 100 µM
TGI (MDA-MB-231 breast): > 100 µM
TGI (HCC-2998 colon): > 100 µM
TGI (OVCAR-5 ovarian): > 100 µM
TGI (HCT-116 colon): > 100 µM
TGI (SF-539 CNS): > 100 µM

COc1cccc(CCNC(=O)Cc2ccccc2CCO)c1
TGI (T-47D breast): > 100 µM
TGI (HS 578T breast): > 100 µM
TGI (NCI-H23 lung): > 100 µM
TGI (OVCAR-8 ovarian): > 100 µM
TGI (EKVX NSCLC): > 100 µM
TGI (M14 melanoma): > 100 µM
TGI (SNB-75 CNS): > 100 µM
TGI (NCI-H460 lung): > 100 µM
TGI (UACC-257 melanoma): > 100 µM
TGI (MDA-MB-231 breast): > 100 µM
TGI (HCC-2998 colon): > 100 µM
TGI (OVCAR-5 ovarian): > 100 µM
TGI (HCT-116 colon): > 100 µM
TGI (SF-539 CNS): > 100 µM

From PubChem BioAssay (NCI)
